Measured values reported in ChEMBL document CHEMBL1124218, “Inhibition of murine thymidylate synthase and human dihydrofolate reductase by 5,8-dideaza analogues of folic acid and aminopterin” (J Med Chem, 1988).

Biological target: Thymidylate synthase (Mus musculus, UniProt P07607)
Assay: Inhibitory activity against thymidylate synthase isolated from L1210 leukemia cells
Assay type: cell-free
Settings: read-out: I50

Chain of Thymidylate synthase (P07607 whole entry): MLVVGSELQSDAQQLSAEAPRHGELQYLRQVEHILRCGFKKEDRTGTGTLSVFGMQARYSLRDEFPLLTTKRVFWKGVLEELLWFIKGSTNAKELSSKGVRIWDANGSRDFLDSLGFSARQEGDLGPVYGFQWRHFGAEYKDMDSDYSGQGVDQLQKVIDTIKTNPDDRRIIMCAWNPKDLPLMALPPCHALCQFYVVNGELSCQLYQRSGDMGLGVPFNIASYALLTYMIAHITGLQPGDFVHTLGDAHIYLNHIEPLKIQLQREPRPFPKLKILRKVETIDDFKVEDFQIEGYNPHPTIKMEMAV

SMILES	IC50 [nM]
Nc1nc(O)c2cc(CSc3ccc(C(=O)NC(CCC(=O)O)C(=O)O)cc3)ccc2n1 (stereo not drawn)	220
Nc1nc(O)c2cc(COc3ccc(C(=O)NC(CCC(=O)O)C(=O)O)cc3)ccc2n1 (stereo not drawn)	12000
Nc1nc(O)c2cc(CN(C=O)c3ccc(C(=O)NC(CCC(=O)O)C(=O)O)cc3)ccc2n1 (stereo not drawn)	9800
C#CCN(Cc1ccc(C(=O)NC(CCC(=O)O)C(=O)O)cc1)c1ccc2nc(N)nc(O)c2c1 (stereo not drawn)	8600
CN(Cc1ccc2nc(N)nc(O)c2c1)c1ccc(C(=O)NC(CCC(=O)O)C(=O)O)cc1 (stereo not drawn)	130
Cc1c(NCc2ccc(C(=O)NC(CCC(=O)O)C(=O)O)cc2)ccc2nc(N)nc(O)c12 (stereo not drawn)	2200
Nc1nc(=O)c2cc(NCc3ccc(C(=O)NC(CCC(=O)O)C(=O)O)cc3)ccc2[nH]1 (stereo not drawn)	1300
Nc1nc(O)c2c(Cl)c(NCc3ccc(C(=O)NC(CCC(=O)O)C(=O)O)cc3)ccc2n1 (stereo not drawn)	4000
C=CCN(Cc1ccc(C(=O)NC(CCC(=O)O)C(=O)O)cc1)c1ccc2nc(N)nc(O)c2c1 (stereo not drawn)	6100
CN(Cc1ccc(C(=O)NC(CCC(=O)O)C(=O)O)cc1)c1ccc2nc(N)nc(O)c2c1 (stereo not drawn)	200
Nc1nc(O)c2cc(N(C=O)Cc3ccc(C(=O)NC(CCC(=O)O)C(=O)O)cc3)ccc2n1 (stereo not drawn)	11000
Cc1c(N(C)Cc2ccc(C(=O)NC(CCC(=O)O)C(=O)O)cc2)ccc2nc(N)nc(O)c12 (stereo not drawn)	700

Next, values leading:

IC50 [nM]	SMILES
3200	C=CCN(Cc1ccc(C(=O)NC(CCC(=O)O)C(=O)O)cc1)c1ccc2nc(N)nc(N)c2c1 (stereo not drawn)
4400	C#CCN(Cc1ccc(C(=O)NC(CCC(=O)O)C(=O)O)cc1)c1ccc2nc(N)nc(N)c2c1 (stereo not drawn)
> 10000	Nc1nc(N)c2cc(CN(C=O)c3ccc(C(=O)NC(CCC(=O)O)C(=O)O)cc3)ccc2n1 (stereo not drawn)
600	CN(Cc1ccc2nc(N)nc(N)c2c1)c1ccc(C(=O)NC(CCC(=O)O)C(=O)O)cc1 (stereo not drawn)
5000	Nc1nc(N)c2cc(CNc3ccc(C(=O)NC(CCC(=O)O)C(=O)O)cc3)ccc2n1 (stereo not drawn)
33	CN(Cc1ccc(C(=O)NC(CCC(=O)O)C(=O)O)cc1)c1ccc2nc(N)nc(N)c2c1 (stereo not drawn)
150	Cc1c(NCc2ccc(C(=O)NC(CCC(=O)O)C(=O)O)cc2)ccc2nc(N)nc(N)c12 (stereo not drawn)
190	Nc1nc(N)c2c(Cl)c(CNc3ccc(C(=O)NC(CCC(=O)O)C(=O)O)cc3)ccc2n1 (stereo not drawn)
98	Nc1nc(N)c2c(Cl)c(NCc3ccc(C(=O)NC(CCC(=O)O)C(=O)O)cc3)ccc2n1 (stereo not drawn)
550	Nc1nc(N)c2cc(NCc3ccc(C(=O)NC(CCC(=O)O)C(=O)O)cc3)ccc2n1 (stereo not drawn)
> 10000	Nc1nc(N)c2cc(N(C=O)Cc3ccc(C(=O)NC(CCC(=O)O)C(=O)O)cc3)ccc2n1 (stereo not drawn)
